One test deals with MDA-MB-468. The test can be described thus: Inhibition of cell proliferation by payloads in vitro (CCK-8). As to conditions: Homo sapiens, MDA-MB-468, 144 h; payloads, proliferation, 6 days, CCK-8; read-out: IC50, nM MDA-MB-468. The format is cell-based. As to the method:
(§1) The cells were added to a 96-well plate at 1.0×10^3 cells/well and 100 μL/well and incubated in a cell culture incubator at 37° C. and 5% CO2. The test compounds were diluted with a DMEM medium containing 2% DMSO (Sigma-Aldrich, Cat. No. 34869) in a 4-fold gradient to the corresponding concentrations. […] The final concentration of DMSO was 0.2%. The cells were incubated in a cell culture incubator at 37° C. and 5% CO2 for 6 days.
(§2) After 6 days of culture, 10 μL/well of Cell Counting Kit-8 reagent (CCK-8, Dojindo, Cat. No. CK04) was added to the wells and mixed well with shaking. The cells were incubated in a cell culture incubator at 37° C. and 5% CO2 for 0.50-4.0 hours.
(§3) The OD450 optical density value was read on an EnVision™ multi-function microplate reader (PerkinElmer), and the inhibition rates (%) of the compounds were calculated. Then, the half-maximal inhibitory concentration (IC50) values were obtained using the XLfit5 software (ID Business Solutions Limited). All samples were tested in duplicate wells.
(§4) [formula] • wherein • OD450test compound represents the optical density value in the wells of the compounds to be tested; • OD450cell represents the optical density value in the wells of cell controls; • OD450background represents the optical density value in the wells of cell-free controls.

A further test concerns MDA-MB-453. The test is described as above. The format is cell-based. As to conditions: Homo sapiens, MDA-MB-453, 144 h, read-out: IC50, nM MDA-MB-453; payloads, proliferation, 6 days, CCK-8. As to the method: as §1, §2, §3, §4

Each structure is given as a SMILES string.

The term IC50 denotes the point on the concentration scale where inhibition reaches its midpoint.

`[2H]C([2H])([2H])n1c(=O)n(C2CC2)c2c3cc(-c4cnc(OC)c(NS(=O)(=O)N5CCNCC5)c4)ccc3ncc21` [Compound 35]: the half-inhibitory concentration (IC50) in the test on MDA-MB-468 is 0.2 nM; in the test on MDA-MB-453 it was 0.22 nM.

Consider `COc1ncc(-c2ccc3ncc4c(c3c2)n(C2CC2)c(=O)n4C)cc1NS(=O)(=O)N1CCN(CCO)CC1` [Compound 22], for which the 50% inhibitory concentration (IC50) with MDA-MB-468 came to 9.2 nM; in the test with MDA-MB-453, 6.5 nM. Taken in the same sequence, the figures for `COc1ncc(-c2ccc3ncc4c(c3c2)C(C2CC2)N=N4)cc1NS(=O)(=O)N1CCNCC1` (stereo not drawn) [Compound 13] were 1.8 nM and 1.3 nM. Taken in the same sequence, the figures for `COc1ncc(-c2ccc3ncc4c(c3c2)n(C2COC2)c(=O)n4C)cc1NS(=O)(=O)N1CCNCC1` [Compound 16] were 91.4 nM and 61.6 nM. Turning to `COc1ncc(-c2ccc3ncc4nnc(C5CC5)n4c3c2)cc1NS(=O)(=O)N1CCNCC1` [Compound 9], the IC50 in the test with MDA-MB-468 was 1 nM. In the case of `COc1ncc(-c2ccc3ncc4c(c3c2)n(C)c(=O)n4C)cc1NS(=O)(=O)N1CCNCC1` [Compound 6], the concentration for half-maximal inhibition (IC50) with MDA-MB-468 was 0.32 nM; in the test on MDA-MB-453, 0.25 nM. Take `COc1ncc(-c2ccc3ncc4c(c3c2)n(C2CC2)c(=O)n4C)cc1NS(=O)(=O)N1CCC2(CC1)CNC2` [Compound 15]: the values for the IC50 in the test with MDA-MB-468 and with MDA-MB-453 were 18.4 nM and 14.9 nM, respectively. In the case of `COc1ncc(-c2ccc3ncc4c(c3c2)n(C2CC2)c(=O)n4CC(F)(F)F)cc1NS(=O)(=O)N1CCNCC1` [Compound 33], the half-inhibitory concentration (IC50) worked out at 3 nM with MDA-MB-468 and 2.3 nM with MDA-MB-453. Regarding `COc1ncc(-c2ccc3ncc4c(c3c2)n(C2CC2)c(=O)n4C)cc1NS(=O)(=O)N1CC2CNCC2C1` (stereo not drawn) [Compound 12], the IC50 in the test with MDA-MB-468 is 7.9 nM; with MDA-MB-453 it was 3.3 nM. Taken in the same sequence, the figures for `COc1ncc(-c2ccc3ncc4nnc(C5CC5)n4c3c2)cc1NS(=O)(=O)N1CCN(C)CC1` [Reference compound 1, reference compound] were 6 nM and 7.9 nM. Taken in the same sequence, the figures for `COc1ncc(-c2ccc3ncc4c(c3c2)n([C@H]2C[C@H](CO)C2)c(=O)n4C)cc1NS(=O)(=O)N1CCN(C)CC1` [Compound 26] were 1.9 nM and 1.8 nM. For `Cn1c(=O)n(C2CC2)c2c3cc(-c4cnc(OCC(F)(F)F)c(NS(=O)(=O)N5CCNCC5)c4)ccc3ncc21` [Compound 34], the IC50 in the test on MDA-MB-468 is 3.4 nM; in the test with MDA-MB-453, 2.8 nM. Take `COc1ncc(-c2ccc3ncc4nccn4c3c2)cc1NS(=O)(=O)N1CCNCC1` [Compound 21]: the results for the IC50 with MDA-MB-468 and with MDA-MB-453 were 4.9 nM and 6.6 nM, respectively. `COc1ncc(-c2ccc3ncc4nnc(C5CCC5)n4c3c2)cc1NS(=O)(=O)N1CCNCC1` [Compound 4]: the IC50 in the test with MDA-MB-468 stood at 0.71 nM; in the test on MDA-MB-453, 0.89 nM.

In the case of `COc1ncc(-c2ccc3ncc4cnc(C)n4c3c2)cc1NS(=O)(=O)N1CCNCC1` [Compound 20], the IC50 in the test on MDA-MB-468 turned out to be 1 nM. `COc1ncc(-c2ccc3ncc4c(c3c2)n([C@H]2C[C@H](CO)C2)c(=O)n4C)cc1NS(=O)(=O)N1CCNCC1` [Compound 8]: the IC50 in the test with MDA-MB-468 was determined as 0.21 nM; with MDA-MB-453, 0.32 nM. Consider `COc1ncc(-c2ccc3ncc4c(c3c2)n(C2CC2)c(=O)n4C)cc1NS(=O)(=O)N1CCN(C)CC1` [Compound 10], for which the 50% inhibitory concentration (IC50) in the test with MDA-MB-453 was found to be 2.3 nM. `COc1ncc(-c2ccc3ncc4ncn(C5CCC5)c4c3c2)cc1NS(=O)(=O)N1CCNCC1` [Compound 17]: the IC50 in the test with MDA-MB-468 is 3.4 nM; in the test with MDA-MB-453 it was 1.8 nM.

Values taken from patent publication US20260048138A1, “NOVEL PI3K AND/OR PIKK INHIBITORS, ANTIBODY-DRUG CONJUGATES COMPRISING THE SAME AND USES THEREOF” (HUTCHMED LIMITED, priority 2024, published 2026).
